Reference: patent publication US9023813B2 (Nutek Pharma Ltd., priority 2012, dated 2015)

Tests used:
male Sprague Dawley rats = assay: Clinical observations of rats during administration of propofol analogs in the pharmacokinetics study; settings: time post-10 min i.v. infusion; 0.168 mmol/Kg
Description: (§1) Blood samples were to be taken pre-dose, during dose and post dose at designated intervals, with the blood quickly processed and stored at −70° C. until analysis.
(§2) Formulations were prepared on the morning of the dosing day and each was passed through a 0.22 μm filter prior to being administered to animals. A standard dose of 0.168 mmol/Kg per analog was administered to each of the rats. […] Analog stability in the formulations was verified by preparing each formulation and harvesting 200 μL aliquots at 0, 1, 2 and 8 hr while standing at room temperature. After harvesting, each sample was immediately frozen in dry ice until analysis; concentrations of test compounds in the samples were examined by HPLC-UV.
(§3) The animals were surgically prepared with indwelling cannula, double cannulation in carotid artery and jugular vein for i.v. infusion. The anesthetic pentobarbital was used during the surgery, and the animals were allowed to recover 3-5 days after surgery before the formulation was dosed. The dose formulation was administered intravenously via the jugular vein cannula. The 16.8 μmol/mL formulation was administered i.v. at a rate of 1 mL/Kg/min for 10 min.

[1] = Solubility determination in D2O by 1H NMR with DSS internal standard; settings: for solubility: D2O, water, thermodynamic from solid
Description: Thus the soapy-like solutions obtained were diluted until opalescent and diluted further until the opalescence visually disappeared.

[2] = Pharmacokinetics: plasma concentrations of prodrug and propofol after intravenous infusion (LC/MS/MS); settings: for Mean concentration of prodrug and propofol in rat plasma after intravenous infusion administration / AUCinf / MRTinf / Cmax / Tmax / t1/2 / AUClast / CLp / Vdss: analyte = administered compound; for Mean Concentration of Propofol in Rat Plasma After Intravenous Administration: analyte = propofol released from the administered compound; for Pro-drug behaviour (release of propofol in vivo): rats, releasing the propofol in a matter of minutes after infusion; for AUCinf / MRTinf: extrapolated to infinity; for Cmax / Tmax / t1/2: rat plasma, IV infusion; for AUClast: to last detected concentration; for CLp: total body clearance, dose/AUCinf; for Vdss: volume of distribution
Description: as §1, §2, §3
Approximately 0.20 mL blood was collected at each designated time point from carotid artery via a catheter. A total of 12 plasma samples were taken from each animal: 1 pre-dose; 2 during the dose (5 into the 10 min infusion and one just prior termination of the 10 min infusion) and 9 post-infusion at 2, 5, 15, 30 min and 1, 2, 3, 4, and 6 hr post-dose. All blood samples were transferred into plastic microcentrifuge tubes containing 5 μL of K2-EDTA (0.5M) as anti-coagulant and placed on ice until processed for plasma. Blood samples were processed for plasma by centrifugation at approximately 5° C. Plasma samples were then stored in 1.5 mL tubes, quick frozen over dry ice and kept at −70±10° C. until LC/MSMS analysis.
For each, a minimum of 6 standard point curve runs in duplicates, and minimum of 5 standards were back calculated to within ±20% of their nominal concentrations. The LLOQ of each test article in plasma was established and 6 QC samples were included in assay runs of samples to ensure assay performance.
Data Analysis. Plasma concentration versus time data was analyzed by non-compartmental approaches using the WinNonlin software program (version 5.2, Pharsight, Mountain View, Calif.) and the pharmacokinetic parameters T½, CL, Vss, AUC(0-t), AUC(0-inf), MRT, and graphs of plasma concentration versus time calculated for each.

Structure (SMILES) | Rats recovered at (male Sprague Dawley rats) | Relative solubility [1] | Mean concentration of prodrug and propofol in rat plasma after intravenous infusion administration ([2]; Time (h) 0) | Mean concentration of prodrug and propofol in rat plasma after intravenous infusion administration ([2]; Time (h) 0.083) | Mean concentration of prodrug and propofol in rat plasma after intravenous infusion administration ([2]; Time (h) 0.167) | Mean concentration of prodrug and propofol in rat plasma after intravenous infusion administration ([2]; Time (h) 0.2) | Mean concentration of prodrug and propofol in rat plasma after intravenous infusion administration ([2]; Time (h) 0.25) | Mean concentration of prodrug and propofol in rat plasma after intravenous infusion administration ([2]; Time (h) 0.417) | Mean concentration of prodrug and propofol in rat plasma after intravenous infusion administration ([2]; Time (h) 0.667) | Mean concentration of prodrug and propofol in rat plasma after intravenous infusion administration ([2]; Time (h) 1.166) | Mean concentration of prodrug and propofol in rat plasma after intravenous infusion administration ([2]; Time (h) 2.166) | Mean concentration of prodrug and propofol in rat plasma after intravenous infusion administration ([2]; Time (h) 3.166) | Mean concentration of prodrug and propofol in rat plasma after intravenous infusion administration ([2]; Time (h) 4.166) | Mean concentration of prodrug and propofol in rat plasma after intravenous infusion administration ([2]; Time (h) 6.166) | Mean Concentration of Propofol in Rat Plasma After Intravenous Administration ([2]; Time (h) 0) | Pro-drug behaviour (release of propofol in vivo) [2] | solubility [1] | AUCinf [2] | MRTinf [2] | AUClast [2] | also measured
CC(C)c1cccc(C(C)C)c1OC(=O)OCCO[C@@H]1O[C@H](CO)[C@@H](O)[C@H](O)[C@H]1O [Compound 9] | recovered at about 30 min | 8.6 | BQL | BQL | BQL | BQL | BQL | BQL | BQL | BQL | BQL | BQL | BQL | BQL | BQL | very efficient pro-drugs |  |  |  |  | 
CC(C)c1cccc(C(C)C)c1OC(=O)OCCCO[C@@H]1O[C@H](CO)[C@@H](OC2O[C@H](CO)[C@@H](O)[C@H](O)[C@H]2O)[C@H](O)[C@H]1O (some centres unmarked) [Compound 25] | recovered at about 35 min | >20 | BQL | 34401 nM | 68360 nM | 22658 nM | 9074 nM | 997 nM | 97.1 nM | 16.2 nM | 2.09 nM | BQL | BQL | BQL | BQL | very efficient pro-drugs | > 20 mM | 8.574 µM·h | 4.62 min | 8.571 µM·h | Rats soporous at (male Sprague Dawley rats): Rats soporous at about 7 min and; Cmax [2]: 68400 nM; Tmax [2]: 10.2 min; t1/2 [2]: 15.2 min; CLp [2]: 20.2 L/h/kg; Vdss [2]: 1.51 L/kg
CC(C)c1cccc(C(C)C)c1OC(=O)OCCCO[C@H]1O[C@H](CO)[C@@H](O)[C@H](O)[C@H]1O [Compound 33] | recovered at about 30 min | 5.2 (8.1)^4 | BQL | 16.5 nM | 23.1 nM | 9.59 nM | BQL | BQL | BQL | BQL | BQL | BQL | BQL | BQL | BQL | very efficient pro-drugs |  |  |  | 0.00304 µM·h | Mean Concentration of Propofol in Rat Plasma After Intravenous Administration ([2]; Time (h) 4.166): BQL; Mean Concentration of Propofol in Rat Plasma After Intravenous Administration ([2]; Time (h) 6.166): BQL
CC(C)c1cccc(C(C)C)c1OC(=O)OCCO[C@@H]1O[C@H](CO)[C@@H](OC2O[C@H](CO)[C@@H](O)[C@H](O)[C@H]2O)[C@H](O)[C@H]1O (some centres unmarked) [Compound 24] | recovered at about 30 min | >20 | BQL | 3200 nM | 7740 nM | 1029 nM | 751 nM | 36 nM | 11.2 nM | 3.01 nM | BQL | 4.2 nM | BQL | BQL | BQL | very efficient pro-drugs | > 20 mM | 0.791 µM·h | 12.4 min | 0.786 µM·h | Cmax [2]: 8100 nM; Tmax [2]: 8.4 min; t1/2 [2]: 53.2 min; CLp [2]: 348.2 L/h/kg; Vdss [2]: 120 L/kg
